Test results: publication PMC11784839, “Monoaminergic neurotransmitters are bimodal effectors of tau aggregation” (Science Advances, 2025)

Target: tau (Homo sapiens, UniProt P10636)
Experiment: MCE Phenols Library screening, tau biosensor cell seeding assay (AvZ)
Format: cell-based
Conditions: for Z repl 1 / Z Repl 2: Z score; for Z repl 1 / raw data 1: replicate 1; for Z Repl 2 / raw data 2: replicate 2; for AvZ (average z score of seeding, SDs from the mean level of seeding): 10 μM phenol in cell cultures, AD brain homogenate preincubated 16 hours, two biological replicates, positive = catalyzes seeding, negative = inhibits
[1] = average Z score of the two replicates, tau biosensor seeding, MCE Phenols Library screen
[2] = average puncta of the two replicates
[3] = average Z score of the two replicates, MCE Phenols Library screen
[4] = average Z score of two replicates, Phenols Library screen
[5] = average Z score of the two replicates, tau seeding

Sequence of tau (P10636 623-695 limits assumed): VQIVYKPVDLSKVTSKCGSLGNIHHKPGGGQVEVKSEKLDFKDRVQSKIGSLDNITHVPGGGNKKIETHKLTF

| SMILES | Z repl 1 | Z Repl 2 | av Z [1] | av puncta (average of raw data 1 and 2) | raw data 1 (puncta) | raw data 2 (puncta) | AvZ (average z score of seeding, SDs from the mean level of seeding) | av puncta [2] | raw data 1 (raw puncta) | raw data 2 (raw puncta) | av Z [3] | av Z [4] | av Z [5] |
| --- | --- | --- | --- | --- | --- | --- | --- | --- | --- | --- | --- | --- | --- |
| Oc1cccc2ccccc12 [1-Naphthol] | 1.606 | 0.927 | 1.267 | 34150.6 | 45632.1 | 22669.1 |  |  |  |  |  |  |  |
| COc1cc(CO)ccc1O [Vanillyl alcohol] | 0.198 | -0.736 |  |  |  |  | -0.269 | 16813.8 | 28727.3 | 4900.36 |  |  |  |
| O=C1C=CC(=O)c2c(O)ccc(O)c21 [Naphthazarin] | -0.196 | -0.791 |  |  | 23991 | 4318.06 |  | 14154.5 |  |  | -0.494 |  |  |
| O=c1cc(-c2ccc(O)cc2)oc2cc(O)c([C@@H]3O[C@H](CO)[C@@H](O)[C@H](O)[C@H]3O[C@@H]3OC[C@H](O)[C@H](O)[C@H]3O)c(O)c12 [Isovitexin 2''-O-arabinoside] | -0.906 | -0.245 |  |  | 15471.3 | 10150.6 |  | 12810.9 |  |  | -0.575 |  |  |
| O=c1cc(-c2ccc(O)cc2)oc2cc(O)c([C@@H]3O[C@H](CO)[C@@H](O)[C@H](O)[C@H]3O)c(O)c12 [Isovitexin] | 0.953 | 1.769 | 1.361 | 34727.5 | 37791.5 | 31663.6 |  |  |  |  |  |  |  |
| CC(=O)O[C@H]1C(=O)c2c(O)cc(O)cc2O[C@@H]1c1ccccc1 [Pinobanksin 3-acetate] | 0.2 | -0.125 |  | 20089.3 | 28746.2 | 11432.4 |  |  |  |  |  | 0.037 |  |
| Oc1cc(O)cc(/C=C/c2c(O)cccc2O)c1 [Gnetol] | -2.02 | -1.135 |  | 1372.64 | 2096.46 | 648.824 |  |  |  |  | -1.577 |  |  |
| O=C(O)C[C@@H]1C(=O)O[C@H]2[C@H](OC(=O)c3cc(O)c(O)c(O)c3)[C@@H](OC(=O)c3cc(O)c(O)c4c3[C@H]1[C@H](O)C(=O)O4)[C@H](OC(=O)c1cc(O)c(O)c(O)c1)O[C@@H]2COC(=O)c1cc(O)c(O)c(O)c1 [Chebulinic acid] | -2.186 | -1.184 |  | 117.372 | 108.91 | 125.835 |  |  |  |  | -1.685 |  |  |
| COc1ccc(-c2oc3cc(O)cc(O)c3c(=O)c2O)cc1O [Tamarixetin] | -0.357 | -0.633 |  |  | 22060 | 6006.83 |  | 14033.4 |  |  | -0.495 |  |  |
| COc1cc(OC)c(CCC(=O)c2ccc(O)cc2)c(OC)c1 [Loureirin B] | 1.015 | 0.248 |  | 26974.5 | 38536.8 | 15412.2 |  |  |  |  |  |  | 0.631 |
| O=C(C=Cc1ccc(O)c(O)c1)OC1CC(O)(C(=O)O)CC(O)C1OC(=O)C=Cc1ccc(O)c(O)c1 (stereo not drawn) [4,5-Dicaffeoylquinic acid] | -1.017 | -0.252 |  |  | 14137.8 | 10071.7 |  | 12104.8 |  |  | -0.635 |  |  |
| COc1cc2c(=O)c(-c3ccc(O)cc3)coc2cc1O[C@@H]1O[C@H](COC(C)=O)[C@@H](O)[C@H](O)[C@H]1O [6''-O-Acetylglycitin] | -0.368 | -0.234 |  |  |  |  |  | 16095.7 | 21928.1 | 10263.4 | -0.301 |  |  |
| O=C1C[C@@H](c2ccc(O)cc2)Oc2cc(O[C@@H]3O[C@H](CO)[C@@H](O)[C@H](O)[C@H]3O)cc(O)c21 [Prunin] | -0.134 | 0.469 |  | 21257.9 | 24743.3 | 17772.6 |  |  |  |  |  |  | 0.168 |
| Cc1c(O)c(C)c2c(c1O)C(=O)C[C@@H](c1ccc(O)cc1)O2 [Farrerol] | -0.382 | -0.766 |  |  | 21763 | 4584.63 |  | 13173.8 |  |  | -0.574 |  |  |
| O=c1cc(-c2ccc(O)c(-c3c(O)cc(O)c4c(=O)cc(-c5ccc(O)cc5)oc34)c2)oc2cc(O)cc(O)c12 [Amentoflavone] | -0.87 | -0.309 |  |  | 15910.5 | 9468.24 |  | 12689.4 |  |  | -0.589 |  |  |
| CCCCCCCCCCCCCCCc1cccc(O)c1C(=O)O [Anacardic Acid] | 0.086 | -0.324 |  | 18346.5 | 27383.8 | 9309.16 | -0.119 |  |  |  |  |  |  |

| SMILES | Z repl 1 | Z Repl 2 | av Z [1] | av puncta (average of raw data 1 and 2) | raw data 1 (puncta) | raw data 2 (puncta) | AvZ (average z score of seeding, SDs from the mean level of seeding) | av puncta [2] | raw data 1 (raw puncta) | raw data 2 (raw puncta) | av Z [3] | av Z [4] | av Z [5] |
| --- | --- | --- | --- | --- | --- | --- | --- | --- | --- | --- | --- | --- | --- |
| O=c1c(O)c(-c2cc(O)c(O)c(O)c2)oc2cc(O)ccc12 [Robinetin] | -0.499 | -0.831 |  |  | 20360.8 | 3888.25 |  | 12124.5 |  |  | -0.665 |  |  |
| O=c1c(O)c(-c2ccc(O)c(O)c2)oc2cc(O[C@@H]3O[C@H](CO)[C@@H](O)[C@H](O)[C@H]3O)c(O)c(O)c12 [Quercetagitrin] | -1.577 | -1.176 |  | 3815.32 | 7422.91 | 207.732 |  |  |  |  | -1.376 |  |  |
| CC[C@@H](C(=O)[C@@H](C)[C@@H](O)[C@H](C)CCc1ccc(C)c(O)c1C(=O)O)[C@H]1O[C@](CC)([C@H]2CC[C@](O)(CC)[C@H](C)O2)C[C@@H]1C [Lasalocid] | 0.41 | -0.218 |  | 20851.6 | 31268.6 | 10434.5 |  |  |  |  |  | 0.096 |  |
| OCC(O)c1ccc(O)c(O)c1 (stereo not drawn) [4-(1,2-Dihydroxyethyl)benzene-1,2-diol] | -0.442 | -0.042 |  |  |  |  | -0.242 | 16682.4 | 21044.7 | 12320.1 |  |  |  |
| Cc1cc(O)c2c(=O)c3c(O)cc(O)c4c5c(O)cc(O)c6c(=O)c7c(O)cc(C)cc7c(c65)c(c2c1)c34 [Protohypericin] | -0.657 | -0.804 |  |  | 18463.4 | 4183.21 |  | 11323.3 |  |  | -0.73 |  |  |
| COc1cc(C)ccc1O [Creosol] | 0.313 | 1.224 |  | 27969.9 | 30100.9 | 25838.9 | 0.768 |  |  |  |  |  |  |
| O=C(c1ccc(O)cc1)c1c(O)cc(O)c([C@@H]2O[C@H](CO)[C@@H](O)[C@H](O)[C@H]2O)c1O [Iriflophenone 3-C-glucoside] | 0.626 | -0.232 |  | 22078.3 | 33866.6 | 10290 |  |  |  |  |  |  | 0.197 |
| O=C(O)Cc1ccccc1O [2-Hydroxyphenylacetic acid] | -1.341 | -0.32 |  | 9796.98 | 10246.8 | 9347.15 | -0.831 |  |  |  |  |  |  |
| COc1cc(-c2cc(=O)c3c(O)c(OC)c(O)cc3o2)ccc1O [Jaceosidin] | 1.473 | 0.443 | 0.958 | 30766.9 | 44034.1 | 17499.7 |  |  |  |  |  |  |  |
| CCCCCCCCC[C@H](O)CC(=O)CCc1ccc(O)c(OC)c1 [10-Gingerol] | -0.921 | -0.318 |  |  | 15293.5 | 9373.24 | -0.619 | 12333.4 |  |  |  |  |  |
| O=C(O)c1cc(O)c2c(c1)[C@H]([C@H]1c3cccc(O)c3C(=O)c3c(O)cc(C(=O)O)cc31)c1cccc(O)c1C2=O [Sennidin B] | 0.553 | -0.073 |  | 22482.9 | 32984.9 | 11981 |  |  |  |  |  |  | 0.24 |
| COc1ccc(CC(=O)c2ccc(O)cc2O)cc1 [Ononetin] | -0.169 | 0.358 |  | 20456.3 | 24324.1 | 16588.6 |  |  |  |  |  | 0.095 |  |
| CC(=O)NCCc1c[nH]c2ccc(O)cc12 [N-Acetyl-5-hydroxytryptamine] | 0.285 | -0.756 |  |  |  |  | -0.235 | 17233.8 | 29776.2 | 4691.42 |  |  |  |
| O=C(O)C(O)Cc1ccc(O)cc1 (stereo not drawn) [Hydroxyphenyllactic acid] | -0.248 | 0.325 |  | 19806.4 | 23372.2 | 16240.5 | 0.039 |  |  |  |  |  |  |
| O=C(O[C@@H]1Cc2c(O)cc(O)cc2O[C@@H]1c1cc(O)c(=O)c2c(O)c(O)cc([C@H]3Oc4cc(O)cc(O)c4C[C@H]3O)c2c1)c1cc(O)c(O)c(O)c1 [Theaflavin-3-gallate] | -2.035 | -1.192 |  | 972.721 | 1914.49 | 30.952 |  |  |  |  | -1.614 |  |  |
| CCC1(c2ccc(O)cc2)NC(=O)N(C)C1=O (stereo not drawn) [4-Hydroxymephenytoin] | -0.081 | -0.754 |  |  |  |  |  | 15044.9 | 25375.4 | 4714.28 | -0.418 |  |  |
